Experimental data published in patent US9732060B2, “Aminotriazine derivative and pharmaceutical composition comprising the same” (Shionogi & Co., Ltd., priority 2013, dated 2017).
Read-outs that look alike come from different tables or passages of the source.

Tests used:
[1] = Protein binding test (equilibrium dialysis, unbound fraction in serum); format: in vitro ADME; conditions: 37° C.
Experimental: The unbound fraction of the present compound in serum was measured using serum of various species.
The reactive conditions are as follows: Evaluation method, Equilibrium dialysis; Reaction time, 24 hours; Reaction temperature, 37° C.; Concentration of the present compound, 2 μg/mL
The test solution was added to each serum and the mixture was agitated to prepare the serum samples at the concentration mentioned above. Each serum sample was added into one side of the cell and phosphate buffered saline (PBS) was added into the other side to perform equilibrium dialysis at 37° C. for 24 hours. Then, the concentration of the compounds in the samples that were obtained from both sides was measured by LC/MS/MS.
The ratio of PBS concentration to serum concentration is expressed as unbound fraction (fu),

Rat P2X3 receptor = Rat P2X3 receptor (Rattus norvegicus (Rat), UniProt P49654); test: Evaluation of rat P2X3 receptor inhibitory activity in the presence of rat serum albumin (RSA); format: cell-based; conditions: read-out: ratP2X3 + RSA IC50
Experimental: Rat P2X3 receptor gene (GenBank accession number NM_031075) was expressed in C6BU-1 cell. The C6BU-1 cells were seeded in a 96-well micro titer plate at a concentration of 2500 cells/well and cultured in the medium (7.0% fetal bovine serum, 7.0% horse serum, and 1% antibiotic and antifungal in DMEM) for one day at 37° C. under 5% carbon dioxide atmosphere. The plasmid was transfected into the cells using transfection reagent FuGENE6 (Promega). The transfected cells were cultured in the medium for one day at 37° C. under 5% carbon dioxide atmosphere. The medium was replaced with 4 μM Fluo-4-AM solution (pH 7.5) containing 20 mM HEPES, 137 mM NaCl, 5.27 mM KCl, 0.9 mM MgCl2, 1.26 mM CaCl2, 5.6 mM D-glucose, 2.5 mM probenecid, 10% RSA, and 0.08% Pluronic F-127, and incubated at 37° C. under 5% dioxide carbon atmosphere for one hour. The plate was washed with washing buffer (20 mM HEPES, 137 mM NaCl, 5.27 mM KCl, 0.9 mM MgCl2, 1.26 mM CaCl2, 5.6 mM D-glucose, 2.5 mM probenecid, pH 7.5), and each well was added with 40 μL of this buffer. The plate was placed in High-Throughput Screening System FDSS 3000 (Hamamatsu Photonics K.K.). Measurement of fluorescence intensity by FDSS 3000 was started, and 40 μL of DMSO solutions containing 1% RSA (final concentrations) and different concentrations of the test compound as prepared by dilution with dilution buffer (20 mM HEPES, 137 mM NaCl, 5.27 mM KCl, 0.9 mM MgCl2, 1.26 mM CaCl2, 5.6 mM D-glucose, 2.5 mM probenecid, 0.1% Pluronic F-127, pH 7.5) were dispensed to each well through the built-in automatic dispenser. Five minutes after, 50 nM ATP solution (50 μL) prepared by dilution with the dilution buffer was dispensed through the built-in automatic dispenser, and the measurement of fluorescence intensity was continued for 4 min. For each well, the specific maximum fluorescence intensity was calculated as the ratio of the maximum fluorescence intensity after addition of the ATP solution to the fluorescence intensity at the starting of the measurement. […] FDSS software (Hamamatsu Photonics K.K.) was used for calculation of the specific maximum fluorescence intensity. IC50 was calculated using Microsoft Excel (Microsoft Corporation) and XLfit (idbs Ltd.).

human P2X3 receptor = human P2X3 receptor (Homo sapiens (Human), UniProt P56373); test: Evaluation of human P2X3 receptor inhibitory activity in the presence of human serum albumin (HSA); format: cell-based; conditions: in the presence of 1% HSA (final concentration)
Experimental: Stably expressing cell line (C6BU-1 cell transfected with human P2X3 receptor gene (GenBank accession number Y07683; was used. The cells were seeded in a 96-well microtiter plate at a concentration of 8000 cells/well and cultured in the medium (7.0% fetal bovine serum, 7.0% horse serum, 1% antibiotic and antifungal, and 2.0% glutamine in DMEM) for one day at 37° C. under 5% carbon dioxide atmosphere. The medium was replaced with 4 μM Fluo-3-AM solution (20 mM HEPES, 137 mM NaCl, 5.37 mM KCl, 0.9 mM MgCl2, 1.26 mM CaCl2, 5.6 mM D-glucose, 2.5 mM probenecid, 0.5% BSA, and 0.04% Pluronic F-127, pH 7.5) and incubated at 37° C. under 5% dioxide carbon atmosphere for one hour. The plate was washed with washing buffer (20 mM HEPES, 137 mM NaCl, 5.27 mM KCl, 0.9 mM MgCl2, 1.26 mM CaCl2, 5.6 mM D-glucose, 2.5 mM probenecid, pH 7.5), and each well was added with 40 μL of this buffer. The plate was placed in High-Throughput Screening System FDSS 3000 (Hamamatsu Photonics K.K.). Measurement of fluorescence intensity by FDSS 3000 was started, and 40 μL of DMSO solutions containing 1% HSA (final concentrations) different concentrations of the test compound as prepared by dilution with dilution buffer (20 mM HEPES, 137 mM NaCl, 5.27 mM KCl, 0.9 mM MgCl2, 1.26 mM CaCl2, 5.6 mM D-glucose, 2.5 mM probenecid, 0.1% Pluronic F-127, pH 7.5) were dispensed to each well through the built-in automatic dispenser. Five minutes after, 50 nM ATP solution (50 μL) prepared by dilution with the dilution buffer was dispensed through the built-in automatic dispenser, and the measurement of fluorescence intensity was continued for 4 min. For each well, the specific maximum fluorescence intensity was calculated as the ratio of the maximum fluorescence intensity after addition of the ATP solution to the fluorescence intensity at the starting of the measurement. […] FDSS software (Hamamatsu Photonics K.K.) was used for calculation of the specific maximum fluorescence intensity. IC50 was calculated using Microsoft Excel (Microsoft Corporation) and XLfit (idbs Ltd.)

[2] = Metabolism stability test, pooled human hepatic microsomes; format: in vitro ADME; conditions: remaining rate, human liver microsomes, 30 minutes, compound concentration 0.5 μmol/L
Experimental: Using commercially available pooled human hepatic microsomes, a test compound is reacted for a constant time, a remaining rate is calculated by comparing a reacted sample and an unreacted sample, thereby, a degree of metabolism in liver is assessed.
A reaction was performed (oxidative reaction) at 37° C. for 0 minute or 30 minutes in the presence of 1 mmol/L NADPH in 0.2 mL of a buffer (50 mmol/L tris-HCl pH 7.4, 150 mmol/L potassium chloride, 10 mmol/L magnesium chloride) containing 0.5 mg protein/mL of human liver microsomes. After the reaction, 50 μL of the reaction solution was added to 100 μL of a methanol/acetonitrile=1/1 (v/v) mixed and centrifuged at 3000 rpm for 15 minutes. The test compound in the supernatant was quantified by LC/MS/MS, and a remaining amount of the test compound after the reaction was calculated, letting a compound amount at 0 minute reaction time to be 100%.
The remaining rate at the compound concentration 0.5 μmol/L are shown below.

[3] = Solubility test (1% DMSO, artificial intestinal juice pH 6.8); format: physicochemical; conditions: artificial intestinal juice pH 6.8 with 1% DMSO, 25 °C, fassgf or other biorelevant, kinetic from dmso stock, artificial intestinal juice pH 6.8, 25 degrees Celsius, read-out: Solubulity
Experimental: The solubility of a compound was determined under a condition in which 1% DMSO was added. 10 mmol/L compound solution was prepared using DMSO, and then 2 μL of the compound solution was added to 198 μL of artificial intestinal juice in pH 6.8 (to 250 mL of 0.2 mol/L potassium dihydrogen phosphate reagent solution was added 118 mL of 0.2 mol/L NaOH reagent solution and water to provide a final volume of 1000 mL). After standing at 25 degrees Celsius for 18 hours, the mixed solution was filtrated with suction. The filtrate was diluted twice with methanol/water (1/1), and then a concentration in the filtration was measured with HPLC or LC/MS/MS by the absolute calibration method.

CYP1A2 = CYP1A2 (Homo sapiens (Human), UniProt P05177); test: CYP inhibition test, CYP1A2; format: in vitro ADME; conditions: pooled human hepatic microsome; 7-ethoxyresorufin-O-deethylation
Experimental: (§1) Using commercially available pooled human hepatic microsome, and employing, as markers, 7-ethoxyresorufin-O-deethylation (CYP1A2), tolbutamide methyl-hydroxylation (CYP2C9), mephenytoin 4′-hydroxylation (CYP2C19), dextromethorphan O-demethylation (CYP2D6), and terfenedine hydroxylation as typical substrate metabolism reactions of human main five CYP enzyme forms (CYP1A2, 2C9, 2C19, 2D6, 3A4), an inhibitory degree of each metabolite production amount by a test compound was assessed.
(§2) The reaction conditions were as follows: substrate, 0.5 μmol/L ethoxyresorufin (CYP1A2), 100 μmol/L tolbutamide (CYP2C9), 50 μmol/L S-mephenitoin (CYP2C19), 5 μmol/L dextromethorphan (CYP2D6), 1 μmol/L terfenedine (CYP3A4); reaction time, 15 minutes; reaction temperature, 37° C. enzyme, pooled human hepatic microsome 0.2 mg protein/mL; test, drug concentration, 1.0, 5.0, 10, 20 μmol/L (four points).
(§3) Each five kinds of substrates, human hepatic microsome, or a test drug in 50 mmol/L Hepes buffer as a reaction solution was added to a […] at the composition as described above, NADPH, as a cofactor was added to initiate metabolism reactions as markers and, after the incubation at 37° C. for 15 minutes, a methanol/acetonitrile=1/1 (v/v) solution was added to stop the reaction. After the centrifugation at 3000 rpm for 15 minutes, resorufin (CYP1A2 metabolite) in the supernatant was quantified by a fluorescent multilabel counter and tributamide hydroxide (CYP2CP metabolite), mephenytoin 4′hydroxide (CYP2C19 metabolite), […] (CYP2D6 metabolite), and terfenadine alcohol (CYP3A4 metabolite) were quantified by LC/MS/MS.
(§4) Addition of only DMSO being a solvent dissolving a drug to a reaction system was adopted as a control (100%), remaining activity (%) was calculated at each concentration of a test drug added as the solution and IC50 was calculated by reverse presumption by a logistic model using a concentration and an inhibition rate.

CYP3A4 = CYP3A4 (Homo sapiens (Human), UniProt P08684); test: CYP inhibition test, CYP3A4; format: in vitro ADME; conditions: pooled human hepatic microsome; terfenedine hydroxylation
Experimental: as §1, §2, §3, §4

CYP2C9 = CYP2C9 (Homo sapiens (Human), UniProt P11712); test: CYP inhibition test, CYP2C9; format: in vitro ADME; conditions: pooled human hepatic microsome; tolbutamide methyl-hydroxylation
Experimental: as §1, §2, §3, §4

CYP2C19 = CYP2C19 (Homo sapiens (Human), UniProt P33261); test: CYP inhibition test, CYP2C19; format: in vitro ADME; conditions: pooled human hepatic microsome; mephenytoin 4′-hydroxylation
Experimental: as §1, §2, §3, §4

CYP2D6 = CYP2D6 (Homo sapiens (Human), UniProt P10635); test: CYP inhibition test, CYP2D6; format: in vitro ADME; conditions: pooled human hepatic microsome; dextromethorphan O-demethylation
Experimental: as §1, §2, §3, §4

[4] = Pharmacokinetic test (BA, CLtot); format: in vivo; conditions: rat, plasma, SD rats
Experimental: • (1) Animals: SD rats were used • (2) Breeding conditions: SD rats were allowed to freely take solid food and sterilized tap water. • (3) Dose and grouping: orally or intravenously administered at a predetermined dose; grouping was as follows (Dose depends on the compound)
Oral administration: 1 mg/kg (n=2)
The total body clearance (CLtot) was calculated by dividing the dose by the AUC of the intravenous administration group.

Chain of Rat P2X3 receptor (P49654 whole entry): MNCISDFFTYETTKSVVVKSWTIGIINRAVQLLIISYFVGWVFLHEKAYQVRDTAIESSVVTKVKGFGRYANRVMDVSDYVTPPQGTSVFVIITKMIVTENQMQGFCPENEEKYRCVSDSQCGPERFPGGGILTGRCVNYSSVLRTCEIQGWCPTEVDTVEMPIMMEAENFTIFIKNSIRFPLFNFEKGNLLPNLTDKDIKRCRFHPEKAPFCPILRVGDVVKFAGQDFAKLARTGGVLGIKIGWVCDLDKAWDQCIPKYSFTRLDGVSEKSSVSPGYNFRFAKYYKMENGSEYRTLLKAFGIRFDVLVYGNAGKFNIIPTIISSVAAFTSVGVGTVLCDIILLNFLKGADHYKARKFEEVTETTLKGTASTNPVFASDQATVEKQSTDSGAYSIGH
Chain of human P2X3 receptor (P56373 whole entry): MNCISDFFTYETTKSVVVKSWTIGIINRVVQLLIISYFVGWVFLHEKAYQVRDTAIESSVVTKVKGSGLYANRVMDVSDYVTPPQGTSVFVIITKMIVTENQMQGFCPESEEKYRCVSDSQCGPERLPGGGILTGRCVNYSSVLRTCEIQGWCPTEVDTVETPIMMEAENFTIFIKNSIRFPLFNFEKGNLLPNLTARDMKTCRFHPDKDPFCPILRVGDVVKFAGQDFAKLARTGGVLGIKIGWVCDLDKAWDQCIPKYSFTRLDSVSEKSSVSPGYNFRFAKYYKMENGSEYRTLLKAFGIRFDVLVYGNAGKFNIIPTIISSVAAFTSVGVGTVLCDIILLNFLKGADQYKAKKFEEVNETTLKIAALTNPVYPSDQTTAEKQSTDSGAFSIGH
Chain of CYP2C9 (P11712 whole entry): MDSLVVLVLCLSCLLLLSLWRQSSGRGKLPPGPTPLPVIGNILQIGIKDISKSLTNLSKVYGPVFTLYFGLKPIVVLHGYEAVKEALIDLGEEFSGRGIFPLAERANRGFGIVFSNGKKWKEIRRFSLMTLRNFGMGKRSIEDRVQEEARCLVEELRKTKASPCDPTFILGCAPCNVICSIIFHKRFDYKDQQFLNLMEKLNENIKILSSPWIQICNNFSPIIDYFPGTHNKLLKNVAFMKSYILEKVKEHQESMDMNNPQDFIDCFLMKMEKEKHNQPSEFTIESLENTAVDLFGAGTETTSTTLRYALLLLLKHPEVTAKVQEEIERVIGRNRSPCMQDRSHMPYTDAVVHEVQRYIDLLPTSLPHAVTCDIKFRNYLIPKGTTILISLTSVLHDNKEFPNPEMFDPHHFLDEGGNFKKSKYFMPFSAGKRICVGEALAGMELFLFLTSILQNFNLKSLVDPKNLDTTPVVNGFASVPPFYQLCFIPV
Chain of CYP1A2 (P05177 whole entry): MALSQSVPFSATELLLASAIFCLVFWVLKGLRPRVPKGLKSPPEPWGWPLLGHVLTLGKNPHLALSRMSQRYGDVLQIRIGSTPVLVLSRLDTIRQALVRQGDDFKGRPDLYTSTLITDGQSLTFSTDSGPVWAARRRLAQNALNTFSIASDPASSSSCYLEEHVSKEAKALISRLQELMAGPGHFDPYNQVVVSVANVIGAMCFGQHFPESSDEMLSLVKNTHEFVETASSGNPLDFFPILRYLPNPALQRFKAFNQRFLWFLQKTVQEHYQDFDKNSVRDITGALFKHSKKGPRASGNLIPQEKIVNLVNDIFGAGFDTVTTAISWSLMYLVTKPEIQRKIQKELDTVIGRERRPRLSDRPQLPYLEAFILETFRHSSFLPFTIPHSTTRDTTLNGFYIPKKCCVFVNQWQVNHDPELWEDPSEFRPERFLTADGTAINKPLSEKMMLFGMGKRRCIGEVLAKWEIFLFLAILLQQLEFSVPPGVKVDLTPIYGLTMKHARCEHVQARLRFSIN
Chain of CYP2D6 (P10635 whole entry): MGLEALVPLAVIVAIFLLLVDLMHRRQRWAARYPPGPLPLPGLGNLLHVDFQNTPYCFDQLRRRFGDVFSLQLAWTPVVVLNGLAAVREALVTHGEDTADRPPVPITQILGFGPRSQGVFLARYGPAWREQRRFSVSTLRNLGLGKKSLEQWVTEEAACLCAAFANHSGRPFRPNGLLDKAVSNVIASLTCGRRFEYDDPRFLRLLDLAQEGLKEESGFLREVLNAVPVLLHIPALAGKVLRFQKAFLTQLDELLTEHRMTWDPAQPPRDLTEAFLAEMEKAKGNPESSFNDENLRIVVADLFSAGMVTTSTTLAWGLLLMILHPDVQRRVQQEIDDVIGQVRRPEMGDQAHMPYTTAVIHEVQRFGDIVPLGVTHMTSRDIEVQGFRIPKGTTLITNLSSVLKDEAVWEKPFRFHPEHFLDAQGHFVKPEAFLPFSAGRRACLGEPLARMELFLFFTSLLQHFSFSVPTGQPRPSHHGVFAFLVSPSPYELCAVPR
Chain of CYP2C19 (P33261 whole entry): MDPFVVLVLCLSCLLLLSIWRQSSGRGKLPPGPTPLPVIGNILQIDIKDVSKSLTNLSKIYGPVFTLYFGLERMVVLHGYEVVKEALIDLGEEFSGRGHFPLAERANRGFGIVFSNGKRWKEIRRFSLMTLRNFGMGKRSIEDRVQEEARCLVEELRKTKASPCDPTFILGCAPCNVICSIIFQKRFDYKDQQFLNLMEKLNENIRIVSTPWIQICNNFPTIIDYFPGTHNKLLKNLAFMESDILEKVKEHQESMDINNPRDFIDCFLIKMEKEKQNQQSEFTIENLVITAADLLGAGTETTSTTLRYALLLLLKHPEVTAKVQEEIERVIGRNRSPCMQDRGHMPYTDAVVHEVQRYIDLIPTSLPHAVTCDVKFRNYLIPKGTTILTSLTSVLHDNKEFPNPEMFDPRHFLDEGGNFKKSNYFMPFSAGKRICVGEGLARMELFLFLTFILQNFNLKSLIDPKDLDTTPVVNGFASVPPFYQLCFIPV
Chain of CYP3A4 (P08684 whole entry): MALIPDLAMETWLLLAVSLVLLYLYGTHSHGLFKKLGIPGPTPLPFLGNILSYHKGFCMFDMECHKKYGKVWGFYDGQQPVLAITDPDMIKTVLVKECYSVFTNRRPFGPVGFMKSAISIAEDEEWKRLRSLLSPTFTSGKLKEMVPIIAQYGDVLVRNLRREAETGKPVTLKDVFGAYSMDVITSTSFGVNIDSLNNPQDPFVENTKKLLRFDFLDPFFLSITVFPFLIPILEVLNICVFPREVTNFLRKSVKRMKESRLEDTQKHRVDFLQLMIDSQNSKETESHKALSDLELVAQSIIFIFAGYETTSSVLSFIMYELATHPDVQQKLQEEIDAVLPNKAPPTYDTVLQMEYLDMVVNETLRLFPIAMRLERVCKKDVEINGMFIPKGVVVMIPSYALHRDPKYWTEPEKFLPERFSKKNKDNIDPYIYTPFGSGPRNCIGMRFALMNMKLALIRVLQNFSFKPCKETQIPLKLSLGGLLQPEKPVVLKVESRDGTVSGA

With O=c1[nH]/c(=N\c2ccc(Oc3ccc(F)cn3)cc2)n(Cc2ccc(Cl)cc2)c(=O)n1[C@H]1C[C@H](C(=O)O)C1 [Compound I-019] the fraction unbound at 24 h, 2 μg/mL [1] was 0.01, the IC50 (Rat P2X3 receptor) was 0.011 µM and the IC50 (human P2X3 receptor) was 0.068 µM. For the same compound, the “Metabolism Stability” value [2] was 96% and the solubility at 18 h [3] was over 50 µM.

For C[C@@H](Cn1c(=O)[nH]/c(=N\c2ccc(Oc3cccc(F)n3)cc2)n(Cc2ccc(F)cc2F)c1=O)C(=O)O [Compound I-029], the fraction unbound at 24 h, 2 μg/mL [1] was 0.017 and the “Metabolism Stability” value [2] was 100%.

Cc1ccc(Cn2c(=O)n(C[C@H](C)C(=O)O)c(=O)[nH]/c2=N\c2ccc(Oc3ncccc3F)cc2)cc1 [Compound I-056] gave a fraction unbound at 24 h, 2 μg/mL [1] of 0.018 and an IC50 (human P2X3 receptor) of 0.023 µM.

With Cc1ccc(Cn2c(=O)n(C[C@H](C)C(=O)O)c(=O)[nH]/c2=N\c2ccc(Oc3cccc(F)n3)cc2)cc1 [Compound I-057] the IC50 (CYP1A2) was over 20 µM, the IC50 (CYP3A4) was over 20 µM and the IC50 (CYP2C9) was over 20 µM. It also gave a fraction unbound at 24 h, 2 μg/mL [1] of 0.017, an IC50 (CYP2C19) of over 20 µM and an IC50 (CYP2D6) of over 20 µM. The “Metabolism Stability” value [2] was 91%, the clearance ([4]; intravenous administration 0.5 mg/kg) was 22.9 mL/min/kg and the AUC ([4]; intravenous administration 0.5 mg/kg, read-out: AUC (iv)) was 367 ng·h/mL. The AUC ([4]; oral administration 1 mg/kg, read-out: AUC (po)) was 487 ng·h/mL and the solubility at 18 h [3] was over 50 µM.

With C[C@@H](Cn1c(=O)[nH]/c(=N\c2ccc(Oc3cnccn3)cc2)n(Cc2ccc(Cl)cc2)c1=O)C(=O)O [Compound R-019] the fraction unbound at 24 h, 2 μg/mL [1] was 0.018 and the IC50 (Rat P2X3 receptor) was 0.008 µM.
